From the Deep4Chem optical property database come the findings set out here.

The structures appear in SMILES notation.

This data set is described as follows: photoluminescence quantum yield (fraction); solvent given as SMILES.

Under “in ClCCl”, `COc1cc(/C=C/c2nc(N3CCOCC3)c3c([n+]2[O-])CCCC3)cc(OC)c1OC` yielded a photoluminescence quantum yield of 0.23.
In turn, `c1ccc(N(c2ccccc2)c2ccc(-c3ccc4c(c3)C3(c5cc(-c6ccc(N(c7ccccc7)c7ccccc7)cc6)ccc5S4)c4ccccc4-c4ccccc43)cc2)cc1` returned a photoluminescence quantum yield (in ClCCl) of 0.66.
On the same count and under the same terms, under `Cc1ccc(-c2cc(/C=C/c3ccc(N(c4ccccc4)c4ccccc4)cc3)c(-c3ccc(C)cc3)cc2/C=C/c2ccc(N(c3ccccc3)c3ccccc3)cc2)cc1` stands 0.74.
The molecule `CC(C)(C)[Si](C)(C)C#CC1=CC2=c3cc(C#C[Si](C)(C)C(C)(C)C)c4nc(C(F)(F)C(F)(F)C(F)(F)F)nc5c(C#C[Si](C)(C)C(C)(C)C)cc(c3c54)C3=CC(C#C[Si](C)(C)C(C)(C)C)=C4N=C(C(F)(F)C(F)(F)C(F)(F)F)N=C1C4C32` (stereo not drawn) yielded a photoluminescence quantum yield (in C1CCOC1) of 0.35.
In the case of `Clc1ccc(/C=C/c2cnc3ccccc3n2)cc1`, for the setting “in ClCCl”, the photoluminescence quantum yield was 0.01.
For the molecule `N#Cc1nc2c(OCc3ccccc3)nc(N)nc2n1Cc1ccccc1`, the photoluminescence quantum yield amounted to 0.73 (in C1COCCO1), 0.65 (in CC#N), 0.14 (in CO) and 0.81 (in ClCCl).
`c1ccc2c(c1)CCc1ccccc1N2` registered a photoluminescence quantum yield (in CC#N) of 0.2, a photoluminescence quantum yield (in CCCCCC) of 0.13 and a photoluminescence quantum yield (in CO) of 0.131.
Regarding `CC1(C)C(/C=C/C=C/c2cc3ccc(O)cc3oc2=O)=[N+](CCCS(=O)(=O)[O-])c2ccccc21`, the photoluminescence quantum yield reads like this: (in CS(C)=O) 0.013; (in O) 0.013.
On to `COc1ccc(/C=C/C2=C3CCc4ccccc4C3=[O+][B-](F)(F)O2)cc1`, for which the photoluminescence quantum yield (in ClCCl) came to 0.04.
The same measure, in the same setting: with `CCCCCCCCCCCCN1C(=O)c2c(c3ccc4cc(-c5ccc(-c6ccccc6)cc5)c(OC)cc4c3c3c2ccc2cc(-c4ccc(-c5ccccc5)cc4)c(OC)cc23)C1=O` the figure was 0.17.
In the case of `CCn1c2ccccc2c2cc(-c3cc(-c4ccc5c(c4)c4ccccc4n5CC)nc(-c4ccc(C#N)cc4)n3)ccc21`, the photoluminescence quantum yield came out at 0.08 (in C1CCOC1); 0.09 (in CCOC(C)=O); 0.07 (in CN(C)C=O); 0.34 (in Cc1ccccc1); 0.11 (in ClCCl).
Where the note is “in CC#N”, `Oc1ccc2ccccc2c1/C=N/CC/N=C/c1c(O)ccc2ccccc12` yielded a photoluminescence quantum yield of 0.12.
`CC(C)(C)c1ccc(C2=c3c(c4ccc(C(C)(C)C)cc4c4cc(C(C)(C)C)ccc34)=[N+]3C2=C(c2ccccc2)c2c(-c4ccc(C(C)(C)C)cc4)c4c5ccc(C(C)(C)C)cc5c5cc(C(C)(C)C)ccc5c4n2[B-]3(F)F)cc1`: the photoluminescence quantum yield by setting is: (in C1CCCCC1) 0.44; (in C1CCOC1) 0.45; (in CC#N) 0.27; (in Cc1ccccc1) 0.46; (in ClCCl) 0.45.
For the setting “in ClCCl”, `COc1ccc(C#Cc2nc3ccccc3nc2-c2ccn(-c3ccccc3)c2)cc1` displayed a photoluminescence quantum yield of 0.24.
`COc1ccc(-c2c(OC)ccc3nnn(C[C@H](N)C(=O)O)c23)cc1` yielded a photoluminescence quantum yield (in CO) of 0.09.
Take `CC[Si](CC)(CC)Oc1cccc(O[Si](CC)(CC)CC)c1-c1c2ccccc2c(-c2c(O[Si](CC)(CC)CC)cccc2O[Si](CC)(CC)CC)c2ccccc12`: the photoluminescence quantum yield (in C1CCCCC1) was determined as 0.96.
Consider `C#Cc1ccc2ccc3oc(=O)cc(C)c3c2c1`, for which, where the note is “in CCO”, the photoluminescence quantum yield was found to be 0.23.
In turn, `Cc1cc(-c2nc(-c3ccccc3)nc(-c3ccccc3)n2)c(C)cc1-c1ccc2c(c1)C1(c3ccccc3-c3ccccc31)c1ccccc1N2c1ccccc1` registered a photoluminescence quantum yield (in c1cc(-c2cccc(-n3c4ccccc4c4ccccc43)c2)cc(-n2c3ccccc3c3ccccc32)c1) of 0.98.
On to `CCCSc1ccc2n1[B-](F)(F)[N+]1=C(SC#N)C=CC1=C2c1ccccc1`, for which the photoluminescence quantum yield runs as follows: (in CC#N) 0.16; (in CCCCCC) 0.18; (in CCOC(C)=O) 0.2; (in CO) 0.16; (in ClCCl) 0.27.
With `c1ccc(-c2ccc3c4ccc(-c5ccccc5)c5c(-c6ccccc6)ccc(c6cccc2c63)c54)cc1`, the photoluminescence quantum yield (in ClCCl) was determined as 0.94.
The same measure, in the same setting: with `CCCCn1c(-c2ccc(-c3nnc(-c4ccc(-c5nc6ccccc6n5CCCC)cc4)o3)cc2)nc2ccccc21` the figure was 0.63.
Take `CN(CCO)c1ccc(/N=N/c2ccc([N+](=O)[O-])cc2)cc1`: the photoluminescence quantum yield turned out to be 0.0028 (in CO), 0.0011 (in OCC(O)CO), 0.0014 (in OCCO) and 4.3e-05 (in Oc1ccccc1).
`Cc1ccc(N(c2ccc(C)cc2)c2ccc3c(c2)c2cc(N(c4ccc(C)cc4)c4ccc(C)cc4)ccc2n3-c2ccc(-c3nc4cccc5c4n3-c3ccccc3C5(C)C)cc2)cc1` displayed a photoluminescence quantum yield (in Cc1ccccc1) of 0.85 and a photoluminescence quantum yield (in O=P(c1ccccc1)(c1ccccc1)c1ccccc1Oc1ccccc1P(=O)(c1ccccc1)c1ccccc1) of 0.45.
`COc1ccc(C2=C(C)C3=C(c4c(-c5ccccn5)nc5ccccn45)c4c(C)c(-c5ccc(OC)cc5)c(C)n4[B-](F)(F)[N+]3=C2C)cc1` registered a photoluminescence quantum yield (in ClCCl) of 0.416.
`CCCCCCCCCCCCn1cccc1/C=C/c1ccc(OCCCC)c2c(/C=C/c3cccn3CCCCCCCCCCCC)ccc(OCCCC)c12` returned a photoluminescence quantum yield (in Cc1ccccc1) of 0.35.
As to `CCC1=C(CC)c2cccc3c2c(cc2nc4ccccc4nc23)O1`, the photoluminescence quantum yield (in ClCCl) was 0.47.
Under “in Cc1ccccc1”, `CCCCOC(=O)c1cc(Oc2ccc(C(C)(C)C)cc2)c2c3c(Cl)cc4c5c(cc(Cl)c(c6c(Oc7ccc(C(C)(C)C)cc7)cc(C(=O)OCCCC)c1c26)c53)C(=O)N(c1c(C(C)C)cccc1C(C)C)C4=O` showed a photoluminescence quantum yield of 0.79.
In turn, `CCN(CC)c1ccc2cc(C#N)/c(=N\C(=O)c3ccccc3)oc2c1` returned a photoluminescence quantum yield (in CCO) of 0.033 and a photoluminescence quantum yield (in ClCCl) of 0.87.
For the molecule `C#CCOc1ccc(/C=C/C2=[N+]3C(=C(c4ccc(N(C)CC)cc4)c4c(C)cc(C)n4[B-]3(F)F)C(C)=C2)cc1`, where the note is “in CO”, the photoluminescence quantum yield was 0.84.
As for `CCCCN(CCCC)c1ccc(/C=C/c2ccc3c(c2)CCc2cc(/C=C/c4ccc(N(CCCC)CCCC)cc4)ccc2-3)cc1`, the photoluminescence quantum yield is 0.87 (in CS(C)=O) and 0.71 (in Cc1ccccc1).
`F[B-]1(F)OC(c2ccc(C(F)(F)F)cc2)=Cc2ccc3ccccc3[n+]21`: the photoluminescence quantum yield (in ClC(Cl)Cl) is 0.37.
As to `Clc1ccc(/C=C/c2ccc(-c3nc4c5cccnc5c5ncccc5c4[nH]3)cc2)cc1`, the photoluminescence quantum yield is, setting by setting: (in C1CCOC1) 0.42; (in CC#N) 0.26; (in CO) 0.16; (in ClCCl) 0.34.
`CCC1(CC)c2ccccc2-c2c1c1c(c3c2C(CC)(CC)c2cc(B(c4c(C)cc(C)cc4C)c4c(C)cc(C)cc4C)ccc2-3)C(CC)(CC)c2ccccc2-1` came in with a photoluminescence quantum yield (in C1CCOC1) of 0.56.
`C(=C\c1ccc(N(c2ccccc2)c2ccccc2)cc1)/c1ccc(-c2cc(-c3ccccn3)nc(-c3ccccn3)c2)cc1`: the photoluminescence quantum yield amounted to 0.55 (in C1CCOC1); 0.46 (in C1COCCO1); 0.53 (in CC#N); 0.54 (in CCO); 0.55 (in ClCCl).
`CC1=[N+]2C(=C(c3ccc(C(=C(c4ccccc4)c4ccccc4)c4ccccc4)cc3)c3ccc(/C=C/c4ccc(C(=C(c5ccccc5)c5ccccc5)c5ccccc5)cc4)n3[B-]2(F)F)C=C1` showed a photoluminescence quantum yield (in C1CCOC1) of 0.619.
Take `C(#Cc1nc2ccccc2s1)c1ccc(N(c2ccc(C#Cc3nc4ccccc4s3)cc2)c2ccc(C#Cc3nc4ccccc4s3)cc2)cc1`: the photoluminescence quantum yield (in Cc1ccccc1) turned out to be 0.8.
`Cc1cc(C2=C(c3cc(C)sc3C)S(=O)(=O)c3ccccc32)c(C)s1` gave a photoluminescence quantum yield (in C1CCOC1) of 0.016.
Take `N#Cc1ccc(/C=C/C=C/C2=NC3C(=O)NC(N)=NC3N2[C@H]2C[C@H](O)[C@@H](CO)O2)cc1` (stereo partly drawn): the photoluminescence quantum yield is, setting by setting: (in C1COCCO1) 0.75; (in CC#N) 0.47; (in CO) 0.32.
Take `COc1cccc(-c2[nH]c(=O)n3c2-c2ccccc2C3=O)c1O`: the photoluminescence quantum yield is, setting by setting: (in CC#N) 0.51; (in CO) 0.02; (in ClCCl) 0.75.
Molecule `Cc1ccc(-n2c3ccccc3c3cc(C=C(C#N)C#N)ccc32)cc1` registered a photoluminescence quantum yield (in C1CCOC1) of 0.12; a photoluminescence quantum yield (in CC#N) of 0.04; a photoluminescence quantum yield (in CC(C)=O) of 0.05; a photoluminescence quantum yield (in CCOC(C)=O) of 0.09; a photoluminescence quantum yield (in CO) of 0.03; a photoluminescence quantum yield (in CS(C)=O) of 0.04. Also, the photoluminescence quantum yield reads like this: (in Cc1ccccc1) 0.11; (in ClC(Cl)Cl) 0.08.
The molecule `O=[N+]([O-])c1ccc(C#Cc2ccccc2C#Cc2ccc([N+](=O)[O-])cc2)cc1` had a photoluminescence quantum yield (in CC#N) of 0.
Regarding `COc1cccc(/C=C/c2ccccc2)c1`, the photoluminescence quantum yield was 0.18 (in C1CCCCC1); 0.16 (in CC#N); 0.15 (in CC(C)O); 0.2 (in CCCCOCCCC); 0.18 (in CCOC(C)=O); 0.18 (in CCOCC).
Turning to `CCC(CC)COC1=CC2=C3c4cc(OCC(CC)CC)c(-c5cccs5)n4[B-](F)(F)[n+]4c3n(c3cc(C(C)(C)C)ccc34)[B-](F)(F)[N+]2=C1c1cccs1`, the photoluminescence quantum yield by setting is: (in C1CCOC1) 0.07; (in ClCCl) 0.07.
As for `N#CC1=CC(c2ccccc2)=CC(C#N)=P1(c1ccccc1)c1ccccc1`, the photoluminescence quantum yield (in ClC(Cl)Cl) came out at 0.75.
As to `CC1=CC(C)=[N+]2C1=C(c1ccc(C(=O)OC3C[C@@H]4CC[C@]3(C)C4(C)C)cc1)c1c(C)cc(C)n1[B-]2(F)F` (stereo partly drawn), the photoluminescence quantum yield (in Cc1ccccc1) amounted to 0.37.
